Experiment: Absorption maximum (λmax) and log ε of the dye in solution
Assay type: physicochemical
Details: CHCl3

Structure (SMILES)	log ε max.	λ max.
Nc1ccc(-c2cc(-c3ccccc3)cc(-c3ccccc3)[s+]2)c(Cl)c1 [Example 27]	4.00	564
CN(C)c1ccc(-c2cc(-c3ccccc3)cc(-c3ccccc3)[s+]2)cc1 [Example 5]	4.77	624
Cc1cc(-c2cc(-c3ccccc3)cc(-c3ccccc3)[s+]2)cc(C)c1N [Example 17]	4.32	600
Cc1cc(N)ccc1-c1cc(-c2ccccc2)cc(-c2ccccc2)[s+]1 [Example 14]	4.30	564
CCN(Cc1ccccc1)c1ccc(-c2cc(-c3ccccc3)cc(-c3ccccc3)[s+]2)cc1 [Example 9]	5.18	615
CCN(CC)c1ccc(-c2cc(-c3ccccc3)cc(-c3ccccc3)[s+]2)cc1 [Example 7]	4.50	638
c1ccc(Nc2ccc(-c3cc(-c4ccccc4)cc(-c4ccccc4)[s+]3)cc2)cc1 [Example 20]	4.39	650
CCc1cc(-c2cc(-c3ccccc3)cc(-c3ccccc3)[s+]2)cc(CC)c1N [Example 18]	4.32	602
COc1cc(-c2cc(-c3ccccc3)cc(-c3ccccc3)[s+]2)c(OC)cc1N [Example 25]	4.36	602
Cc1cc(N(C)C)ccc1-c1cc(-c2ccccc2)cc(-c2ccccc2)[s+]1 [Example 16]		616
Nc1ccc(-c2cc(-c3ccccc3)cc(-c3ccccc3)[s+]2)cc1N [Example 29]		654
CNc1ccc(-c2cc(-c3ccccc3)cc(-c3ccccc3)[s+]2)cc1 [Example 4]	4.55	633
c1ccc(CN(Cc2ccccc2)c2ccc(-c3cc(-c4ccccc4)cc(-c4ccccc4)[s+]3)cc2)cc1 [Example 11]	4.50	602
Nc1ccc(-c2cc(-c3ccccc3)cc(-c3ccccc3)[s+]2)cc1 [Example 2]	4.34	592
CCN(Cc1ccccc1)c1ccc(-c2cc(-c3ccccc3)cc(-c3ccccc3)[s+]2)cc1 [Example 10]	5.05	620
c1ccc(-c2cc(-c3ccccc3)[s+]c(-c3cc4c5c(c3)CCCN5CCC4)c2)cc1 [Example 31, 2,4-diphenyl-6(julolidin-6-yl) thiopyrylium trifluoromethane sulfonate]		675 nm
Cc1cc(-c2cc(-c3ccccc3)cc(-c3ccccc3)[s+]2)ccc1N [Example 12]	4.32	600
OCCN(CCO)c1ccc(-c2cc(-c3ccccc3)cc(-c3ccccc3)[s+]2)cc1 [Example 26]	4.31	638
COc1cc(-c2cc(-c3ccccc3)cc(-c3ccccc3)[s+]2)ccc1N [Example 21]	4.32	612
CN(C)c1ccc(-c2cc(-c3ccccc3)cc(-c3ccccc3)[s+]2)cc1 [Example 6]	4.86	622
c1ccc(-c2cc(-c3ccccc3)[s+]c(-c3ccc(NC4CCCCC4)cc3)c2)cc1 [Example 19]	4.31	634
CCN(Cc1ccccc1)c1ccc(-c2cc(-c3ccccc3)cc(-c3ccccc3)[s+]2)cc1 [Example 8]	4.53	620
COc1cc(N)ccc1-c1cc(-c2ccccc2)cc(-c2ccccc2)[s+]1 [Example 23]	4.27	586

Same assay, conditions: EtOH

Structure (SMILES)	log ε max.	λ max.
Cc1cc(-c2cc(-c3ccccc3)cc(-c3ccccc3)[s+]2)ccc1N [Example 13]	4.32	596
COc1cc(N)ccc1-c1cc(-c2ccccc2)cc(-c2ccccc2)[s+]1 [Example 24]	4.16	566
COc1cc(-c2cc(-c3ccccc3)cc(-c3ccccc3)[s+]2)ccc1N [Example 22]	4.19	588
Cc1cc(N)ccc1-c1cc(-c2ccccc2)cc(-c2ccccc2)[s+]1 [Example 15]	4.16	556
Nc1ccc(-c2cc(-c3ccccc3)cc(-c3ccccc3)[s+]2)c(Cl)c1 [Example 28]	4.06	588
CNc1ccc(-c2cc(-c3ccccc3)cc(-c3ccccc3)[s+]2)cc1 [Example 3]	4.38	596
Nc1ccc(-c2cc(-c3ccccc3)cc(-c3ccccc3)[s+]2)cc1 [Example 1, 2-(4-aminophenyl)-4,6-diphenylthiopyrylium perchlorate]	4.21	584

Same assay, conditions: Example 1, first band (584); solvent not given

Structure (SMILES)	logε
Nc1ccc(-c2cc(-c3ccccc3)cc(-c3ccccc3)[s+]2)cc1 [Example 1, 2-(4-aminophenyl)-4,6-diphenylthiopyrylium perchlorate]	4.21

Same assay, conditions: Example 1, first band; solvent not given

Structure (SMILES)	λ max.
Nc1ccc(-c2cc(-c3ccccc3)cc(-c3ccccc3)[s+]2)cc1 [Example 1, 2-(4-aminophenyl)-4,6-diphenylthiopyrylium perchlorate]	584

Same assay, conditions: Example 1, second band (367); solvent not given

Structure (SMILES)	logε
Nc1ccc(-c2cc(-c3ccccc3)cc(-c3ccccc3)[s+]2)cc1 [Example 1, 2-(4-aminophenyl)-4,6-diphenylthiopyrylium perchlorate]	4.27

Same assay, conditions: Example 1, second band; solvent not given

Structure (SMILES)	λ max.
Nc1ccc(-c2cc(-c3ccccc3)cc(-c3ccccc3)[s+]2)cc1 [Example 1, 2-(4-aminophenyl)-4,6-diphenylthiopyrylium perchlorate]	367
